The target in test [1] is T1, Acyl-[acyl-carrier-protein]--UDP-N-acetylglucosamine O-acyltransferase (Escherichia coli (strain K12), UniProt P0A722).
T1 sequence (P0A722 whole entry): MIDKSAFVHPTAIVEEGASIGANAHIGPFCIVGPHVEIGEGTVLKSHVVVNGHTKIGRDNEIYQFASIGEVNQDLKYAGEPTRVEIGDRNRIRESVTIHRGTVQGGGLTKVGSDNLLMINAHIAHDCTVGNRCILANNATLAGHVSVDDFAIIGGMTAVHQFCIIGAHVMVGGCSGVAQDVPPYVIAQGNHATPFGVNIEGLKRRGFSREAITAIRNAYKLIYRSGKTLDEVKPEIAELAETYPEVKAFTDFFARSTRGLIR
The test is described as follows: Fluorescence Polarization Assay. As to conditions: pH 8. Here is the method: (§1) The fluorescence polarization assay was performed as previously described [Jenkins et al., ACS Chem. Biol., 7:1170-1177]. In 384-well black Costar plates, LpxA or His6-LpxD were serially diluted while holding the fluorescent peptide at 20 nM in a final volume of 50 μl in 20mM HEPES pH 8.0 (0.01% DMSO). The wells were gently mixed and incubated at 30 °C in the dark for 15 min. Polarization was measured on a SpectraMax M5 plate reader in triplicate with readings taken at λex = 485 nm and λem = 525 nm.
A general note: In fluorescence polarisation assays a small probe gives low polarisation when free and higher when bound to something large.

Test [2] deals with T2, UDP-3-O-(3-hydroxymyristoyl)glucosamine N-acyltransferase (Escherichia coli (strain K12), UniProt P21645).
T2 sequence (P21645 whole entry): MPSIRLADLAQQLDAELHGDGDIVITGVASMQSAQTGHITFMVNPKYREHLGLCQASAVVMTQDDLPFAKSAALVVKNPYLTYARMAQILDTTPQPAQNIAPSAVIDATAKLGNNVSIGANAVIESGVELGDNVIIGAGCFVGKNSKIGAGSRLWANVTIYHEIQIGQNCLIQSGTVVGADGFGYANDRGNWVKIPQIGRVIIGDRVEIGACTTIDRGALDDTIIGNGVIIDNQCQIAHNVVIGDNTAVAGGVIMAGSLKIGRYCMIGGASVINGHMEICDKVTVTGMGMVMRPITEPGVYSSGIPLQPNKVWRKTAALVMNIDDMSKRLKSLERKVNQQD
The test is described as follows: Fluorescence Polarization Assay. As to conditions: pH 8. The protocol:
as §1

These results are taken from BindingDB's records for doi:10.1074/jbc.M114.564278 (University of Michigan, 2014).

Where a SMILES comes first, the peptide text is derived from it. [ ]: non-standard residue; d: D form. The star is where a group is joined. X1 = O=C(O)c1cc(NC(=S)*)ccc1-c1c2ccc(=O)cc-2oc2cc(O)ccc12; Ala(3-Me-diazirin-3-yl) = CC1(C[C@H](N)C(=O)O)N=N1; βAla = NCCC(=O)O

With `CC[C@H](C)[C@H](NC(=O)[C@H](CC(=O)O)NC(=O)[C@H](Cc1c[nH]c2ccccc12)NC(=O)[C@H](CCCCN)NC(=O)[C@@H]1CCCN1C(=O)[C@H](CC(C)C)NC(=O)[C@H](CCSC)NC(=O)[C@H](Cc1ccc(O)cc1)NC(=O)[C@H](CC(C)C)NC(=O)[C@H](CC(N)=O)NC(=O)[C@@H](NC(=O)CCNC(=S)Nc1ccc(-c2c3ccc(=O)cc-3oc3cc(O)ccc23)c(C(=O)O)c1)[C@@H](C)O)C(=O)N1CCC[C@H]1C(N)=O` [FITC-(βa)TNLYMLPKWDIP-CONH2] ({X1-βAla}-TNLYMLPKWDIP-NH2), the results for the dissociation constant Kd in test [1] and in test [2] were 17 µM and 0.6 µM, respectively.
Consider H-TNLYML-NH2 [RJPXD33Δ6], for which the Kd (as a rule, the concentration at which binding is half-saturated) in test [1] came out at 23 µM.
As to `CSCC[C@H](NC(=O)[C@H](Cc1ccc(O)cc1)NC(=O)[C@H](CC(C)C)NC(=O)[C@H](CC(N)=O)NC(=O)[C@@H](NC(=O)CCNC(=S)Nc1ccc(-c2c3ccc(=O)cc-3oc3cc(O)ccc23)c(C(=O)O)c1)[C@@H](C)O)C(=O)N[C@@H](CC(C)C)C(=O)O` [FITC-(βa)TNLYML-COOH] ({X1-βAla}-TNLYML-OH), the figures for the equilibrium dissociation constant (Kd) in test [1] and in test [2] were 4.4 µM and 36 µM, respectively.
Take `CSCC[C@H](NC(=O)[C@H](Cc1ccc(O)cc1)NC(=O)[C@H](CC(C)C)NC(=O)[C@H](CC(N)=O)NC(=O)[C@@H](NC(=O)CCNC(=S)Nc1ccc(-c2c3ccc(=O)cc-3oc3cc(O)ccc23)c(C(=O)O)c1)[C@@H](C)O)C(=O)N[C@@H](CC(C)C)C(=O)N1CCC[C@H]1C(=O)N[C@@H](CCCCN)C(=O)N[C@@H](Cc1c[nH]c2ccccc12)C(=O)N[C@@H](CC(=O)O)C(=O)N[C@@H](CC1(C)N=N1)C(=O)N1CCC[C@H]1C(N)=O` [FITC-(βa)TNLYMLPKWD(L-photoleucine)P-CONH2] ({X1-βAla}-TNLYMLPKWD[Ala(3-Me-diazirin-3-yl)]P-NH2): the figures for the dissociation constant (Kd) in test [1] and in test [2] were 22 µM and 0.8 µM, respectively.
Turning to `CSCC[C@H](NC(=O)[C@H](Cc1ccc(O)cc1)NC(=O)[C@H](CC(C)C)NC(=O)[C@H](CC(N)=O)NC(=O)[C@@H](NC(=O)CCNC(=S)Nc1ccc(-c2c3ccc(=O)cc-3oc3cc(O)ccc23)c(C(=O)O)c1)[C@@H](C)O)C(=O)N[C@@H](CC(C)C)C(N)=O` [FITC-(βa)TNLYML-CONH2] ({X1-βAla}-TNLYML-NH2), the values for the dissociation constant (Kd) in test [1] and in test [2] were 12 µM and 22 µM, respectively.
Take H-TNLYML-OH [RJPXD33Δ6-COOH]: the Kd in test [1] was determined as 2.1 µM.
Consider `CC[C@H](C)[C@H](NC(=O)[C@H](CC(=O)O)NC(=O)[C@H](Cc1c[nH]c2ccccc12)NC(=O)[C@H](CCCCN)NC(=O)[C@@H]1CCCN1C(=O)[C@H](CC1(C)N=N1)NC(=O)[C@H](CCSC)NC(=O)[C@H](Cc1ccc(O)cc1)NC(=O)[C@H](CC(C)C)NC(=O)[C@H](CC(N)=O)NC(=O)[C@@H](NC(=O)CCNC(=S)Nc1ccc(-c2c3ccc(=O)cc-3oc3cc(O)ccc23)c(C(=O)O)c1)[C@@H](C)O)C(=O)N1CCC[C@H]1C(N)=O` [FITC-(βa)TNLYM(L-photoleucine)PKWDIP-CONH2] ({X1-βAla}-TNLYM[Ala(3-Me-diazirin-3-yl)]PKWDIP-NH2), for which the Kd in test [1] was 32 µM; in test [2] it was 1.1 µM.
With `CC[C@H](C)[C@H](NC(=O)[C@H](CC(=O)O)NC(=O)[C@H](Cc1c[nH]c2ccccc12)NC(=O)[C@H](CCCCN)NC(=O)[C@@H]1CCCN1C(=O)[C@H](CC(C)C)NC(=O)[C@H](CCSC)NC(=O)[C@H](Cc1ccc(O)cc1)NC(=O)[C@H](CC1(C)N=N1)NC(=O)[C@H](CC(N)=O)NC(=O)[C@@H](NC(=O)CCNC(=S)Nc1ccc(-c2c3ccc(=O)cc-3oc3cc(O)ccc23)c(C(=O)O)c1)[C@@H](C)O)C(=O)N1CCC[C@H]1C(N)=O` [FITC-(βa)TN(L-photoleucine)YMLPKWDIP-CONH2] ({X1-βAla}-TN[Ala(3-Me-diazirin-3-yl)]YMLPKWDIP-NH2), the results for the Kd in test [1] and in test [2] were 50 µM and 2.1 µM, respectively.
